Reference: the NIST ThermoML archive (doi:10.1016/j.fluid.2017.07.024)

Key:
[1] = molar heat capacity at constant pressure; details: 101 kPa, Power-Compensation Calorimetry
[2] = wn = mass fraction of the nth substance listed; details: 101 kPa, Liquid, Capillary tube (Ostwald / Ubbelohde) method, w1 = 0.9
[3] = Liquid, Closed cell (Static) method

CCCCn1cc[n+](C)c1.[Br-] [1-butyl-3-methylimidazolium bromide]
molar heat capacity at constant pressure [J/K/mol], [1]
Details	283.15 K	293.15 K	303.15 K	313.15 K	323.15 K	333.15 K	343.15 K	353.15 K	363.15 K	373.15 K
Crystal	265.14	269.52	276.09	289.24	308.96	361.55	705.57	–	–	–
Liquid	–	–	–	–	–	–	–	352.79	359.36	363.74

CCCCn1cc[n+](C)c1.[Br-] [1-butyl-3-methylimidazolium bromide] + O
[2]
Details	kinematic viscosity [m2/s]
313.15 K	2.21e-05
323.15 K	1.56e-05
333.15 K	1.14e-05
343.15 K	8.58e-06
353.15 K	6.65e-06
363.15 K	5.34e-06
373.15 K	4.34e-06

O [water]
[3]
Details	vapor or sublimation pressure [kPa]
274.15 K	0.671
276.15 K	0.778
279.15 K	0.956
282.15 K	1.171
285.15 K	1.428
288.15 K	1.739
291.15 K	2.103
294.15 K	2.525
297.15 K	3.035
300.15 K	3.62
303.15 K	4.299
304.45 K	4.659
306.15 K	5.104
308.55 K	5.85
313.45 K	7.631
318.15 K	9.698
323.45 K	12.68
328.65 K	16.35
333.15 K	20.22
337.45 K	24.61
345.65 K	35.27
353.85 K	49.37
364.35 K	74.26
372.15 K	99.51
